Bridge positions count the residues as written; N and C are the ends. Square brackets hold non-standard residues; d marks the D form. Peptide text beside a SMILES is read from it. * marks the point of attachment. X1 = CC(O)[C@H](CO)N*
Experiments:
[1] = target: Somatostatin receptor type 2 (Mus musculus, UniProt P30875)
[2] = target: Somatostatin receptor type 3 (Mus musculus, UniProt P30935)
Somatostatin receptor type 3, sequence (P30935 whole entry): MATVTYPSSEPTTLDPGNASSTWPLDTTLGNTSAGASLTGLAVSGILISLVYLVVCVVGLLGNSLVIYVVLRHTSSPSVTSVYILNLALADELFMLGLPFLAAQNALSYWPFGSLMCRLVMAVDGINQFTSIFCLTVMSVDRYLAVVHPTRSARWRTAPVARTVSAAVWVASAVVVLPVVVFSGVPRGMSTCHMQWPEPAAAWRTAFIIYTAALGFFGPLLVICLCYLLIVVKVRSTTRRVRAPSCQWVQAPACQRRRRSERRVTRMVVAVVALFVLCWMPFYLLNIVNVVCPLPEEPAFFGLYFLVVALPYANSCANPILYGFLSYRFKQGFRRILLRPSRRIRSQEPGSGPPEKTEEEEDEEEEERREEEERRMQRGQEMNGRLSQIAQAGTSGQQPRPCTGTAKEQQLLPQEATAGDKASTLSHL

Somatostatin receptor type 2, sequence (P30875 whole entry): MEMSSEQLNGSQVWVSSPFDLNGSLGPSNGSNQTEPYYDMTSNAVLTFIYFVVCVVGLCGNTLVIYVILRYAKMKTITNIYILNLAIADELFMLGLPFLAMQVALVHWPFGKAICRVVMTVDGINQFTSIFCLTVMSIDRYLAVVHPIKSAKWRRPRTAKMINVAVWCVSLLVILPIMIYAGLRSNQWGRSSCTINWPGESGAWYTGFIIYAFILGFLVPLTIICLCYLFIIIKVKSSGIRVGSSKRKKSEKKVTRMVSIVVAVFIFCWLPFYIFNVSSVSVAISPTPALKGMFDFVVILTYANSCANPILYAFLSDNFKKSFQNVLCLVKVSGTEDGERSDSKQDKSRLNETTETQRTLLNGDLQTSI

`CC(O)[C@H](CO)NC(=O)[C@@H]1CSSC[C@H](NC(=O)[C@H](N)Cc2ccccc2)C(=O)N[C@@H](Cc2ccccc2)C(=O)N[C@H](Cc2c[nH]c3ccccc23)C(=O)N[C@@H](CCCCN)C(=O)N[C@@H]([C@@H](C)O)C(=O)N1` (some centres undefined) (H-[dF]CF[dW]KTC-X1; disulfide 2-7) was tested, and the Ki [1] was 0.5 nM and the Ki [2] was 150 nM.

`CC(C)[C@@H]1NC(=O)[C@H](CCCCN)NC(=O)[C@@H](Cc2c[nH]c3ccccc23)NC(=O)[C@H](Cc2ccc(O)cc2)NC(=O)[C@H](C)N(C)C(=O)[C@H](Cc2ccccc2)NC1=O` [CAS_3086456] gave a Ki [1] of 0.07 nM and a Ki [2] of 268 nM.

— BindingDB's records for PubMed 1328199 (University of Chicago, 1992)
